Legend:
Experiment in all cases: radiometric filter-binding kinase assay, Kinase HotSpot
Conditions in all cases: compound 0.5 µM; ATP 10 µM
CSNK1E (human) = CSNK1E (human) (UniProt P49674)
STK38 (human) = STK38 (human) (UniProt Q15208)
SRPK1 (human) = SRPK1 (human) (UniProt Q96SB4)
PRKCI (human) = PRKCI (human) (UniProt P41743)
EPHA6 (human) = EPHA6 (human) (UniProt Q9UF33)
CSNK2A2 (human) = CSNK2A2 (human) (UniProt P19784)
ABL1 (human) = ABL1 (human) (UniProt P00519)
CSK (human) = CSK (human) (UniProt P41240)
RPS6KA2 KD1 KD2 (human) = RPS6KA2 KD1 KD2 (human) (UniProt Q15349)
PRKACG (human) = PRKACG (human) (UniProt P22612)
STK33 (human) = STK33 (human) (UniProt Q9BYT3)
ULK3 (human) = ULK3 (human) (UniProt Q6PHR2)
IRAK4 (human) = IRAK4 (human) (UniProt Q9NWZ3)
MAPK11 (human) = MAPK11 (human) (UniProt Q15759)
EPHB1 (human) = EPHB1 (human) (UniProt P54762)
PKN2 (human) = PKN2 (human) (UniProt Q16513)
PAK7 (human) = PAK7 (human) (UniProt Q9P286)
PRKCH (human) = PRKCH (human) (UniProt P24723)
MAPK12 (human) = MAPK12 (human) (UniProt P53778)
PRKX (human) = PRKX (human) (UniProt P51817)
JAK2 JH1 JH2 (human) = JAK2 JH1 JH2 (human) (UniProt O60674)
DYRK4 (human) = DYRK4 (human) (UniProt Q9NR20)
JAK3 JH1 JH2 (human) = JAK3 JH1 JH2 (human) (UniProt P52333)
DYRK1B (human) = DYRK1B (human) (UniProt Q9Y463)
CHUK (human) = CHUK (human) (UniProt O15111)
OXSR1 (human) = OXSR1 (human) (UniProt O95747)
MAPK9 (human) = MAPK9 (human) (UniProt P45984)
CDK5 CDK5R1 p25 (human) = CDK5 CDK5R1 p25 (human) (UniProt Q00535+Q15078)
TLK2 (human) = TLK2 (human) (UniProt Q86UE8)
MYO3B (human) = MYO3B (human) (UniProt Q8WXR4)
RPS6KA4 KD2 (human) = RPS6KA4 KD2 (human) (UniProt O75676)
BRAF (human) = BRAF (human) (UniProt P15056)
PBK (human) = PBK (human) (UniProt Q96KB5)
MATK (human) = MATK (human) (UniProt P42679)
ULK1 (human) = ULK1 (human) (UniProt O75385)
TAOK2 (human) = TAOK2 (human) (UniProt Q9UL54)
CAMK2D (human) = CAMK2D (human) (UniProt Q13557)
MAPK8 (human) = MAPK8 (human) (UniProt P45983)
RPS6KA3 KD1 KD2 (human) = RPS6KA3 KD1 KD2 (human) (UniProt P51812)
PRKD2 (human) = PRKD2 (human) (UniProt Q9BZL6)

CDK5 CDK5R1 p25 (human), sequence (Q00535 whole entry, looked up): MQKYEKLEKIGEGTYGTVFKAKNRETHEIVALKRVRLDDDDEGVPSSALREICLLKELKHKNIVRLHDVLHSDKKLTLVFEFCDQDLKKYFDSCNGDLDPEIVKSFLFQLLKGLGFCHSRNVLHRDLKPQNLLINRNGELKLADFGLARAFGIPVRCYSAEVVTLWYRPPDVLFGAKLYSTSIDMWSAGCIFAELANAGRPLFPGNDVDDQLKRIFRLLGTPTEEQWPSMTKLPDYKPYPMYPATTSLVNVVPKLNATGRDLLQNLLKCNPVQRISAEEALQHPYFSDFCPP
CDK5 CDK5R1 p25 (human), sequence (Q15078 whole entry, looked up): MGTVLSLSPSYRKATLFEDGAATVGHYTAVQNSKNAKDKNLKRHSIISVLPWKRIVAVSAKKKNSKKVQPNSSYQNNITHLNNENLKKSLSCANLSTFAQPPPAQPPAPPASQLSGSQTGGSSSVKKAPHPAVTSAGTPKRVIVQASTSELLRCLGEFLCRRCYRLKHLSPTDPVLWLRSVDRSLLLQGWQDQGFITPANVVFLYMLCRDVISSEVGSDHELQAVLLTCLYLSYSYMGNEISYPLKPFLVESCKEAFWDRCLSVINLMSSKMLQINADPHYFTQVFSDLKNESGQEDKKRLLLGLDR
PBK (human), sequence (Q96KB5 whole entry, looked up): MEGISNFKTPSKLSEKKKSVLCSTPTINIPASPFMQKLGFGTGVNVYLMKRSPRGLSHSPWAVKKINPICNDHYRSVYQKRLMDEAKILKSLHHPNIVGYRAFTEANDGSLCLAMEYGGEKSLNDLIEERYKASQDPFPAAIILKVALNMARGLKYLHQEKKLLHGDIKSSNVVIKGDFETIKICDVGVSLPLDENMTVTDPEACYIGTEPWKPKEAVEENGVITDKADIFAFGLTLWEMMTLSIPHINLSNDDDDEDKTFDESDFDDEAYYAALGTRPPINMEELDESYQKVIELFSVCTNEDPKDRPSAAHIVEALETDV
CSNK1E (human), sequence (P49674 whole entry, looked up): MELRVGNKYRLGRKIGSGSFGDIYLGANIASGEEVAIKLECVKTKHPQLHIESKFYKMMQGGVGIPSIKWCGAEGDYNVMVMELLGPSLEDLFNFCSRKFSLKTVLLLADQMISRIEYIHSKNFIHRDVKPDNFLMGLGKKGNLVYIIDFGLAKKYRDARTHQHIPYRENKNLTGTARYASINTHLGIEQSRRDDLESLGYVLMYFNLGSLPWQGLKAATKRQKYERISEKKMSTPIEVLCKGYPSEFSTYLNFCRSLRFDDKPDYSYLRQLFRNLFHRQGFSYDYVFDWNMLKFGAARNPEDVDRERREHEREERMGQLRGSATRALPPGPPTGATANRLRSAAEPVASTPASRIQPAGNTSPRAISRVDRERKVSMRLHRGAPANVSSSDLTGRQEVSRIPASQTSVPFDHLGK
MAPK11 (human), sequence (Q15759 whole entry, looked up): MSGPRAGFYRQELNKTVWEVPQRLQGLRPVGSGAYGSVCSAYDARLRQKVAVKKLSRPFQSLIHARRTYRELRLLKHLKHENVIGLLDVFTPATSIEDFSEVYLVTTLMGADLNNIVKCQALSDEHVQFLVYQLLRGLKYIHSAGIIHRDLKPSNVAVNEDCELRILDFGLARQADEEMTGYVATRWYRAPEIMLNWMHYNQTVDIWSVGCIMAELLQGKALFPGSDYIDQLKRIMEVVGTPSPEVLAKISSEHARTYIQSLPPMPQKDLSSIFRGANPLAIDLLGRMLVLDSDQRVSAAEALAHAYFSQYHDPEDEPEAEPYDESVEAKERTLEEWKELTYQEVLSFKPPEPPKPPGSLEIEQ
RPS6KA4 KD2 (human), sequence (O75676 whole entry, looked up): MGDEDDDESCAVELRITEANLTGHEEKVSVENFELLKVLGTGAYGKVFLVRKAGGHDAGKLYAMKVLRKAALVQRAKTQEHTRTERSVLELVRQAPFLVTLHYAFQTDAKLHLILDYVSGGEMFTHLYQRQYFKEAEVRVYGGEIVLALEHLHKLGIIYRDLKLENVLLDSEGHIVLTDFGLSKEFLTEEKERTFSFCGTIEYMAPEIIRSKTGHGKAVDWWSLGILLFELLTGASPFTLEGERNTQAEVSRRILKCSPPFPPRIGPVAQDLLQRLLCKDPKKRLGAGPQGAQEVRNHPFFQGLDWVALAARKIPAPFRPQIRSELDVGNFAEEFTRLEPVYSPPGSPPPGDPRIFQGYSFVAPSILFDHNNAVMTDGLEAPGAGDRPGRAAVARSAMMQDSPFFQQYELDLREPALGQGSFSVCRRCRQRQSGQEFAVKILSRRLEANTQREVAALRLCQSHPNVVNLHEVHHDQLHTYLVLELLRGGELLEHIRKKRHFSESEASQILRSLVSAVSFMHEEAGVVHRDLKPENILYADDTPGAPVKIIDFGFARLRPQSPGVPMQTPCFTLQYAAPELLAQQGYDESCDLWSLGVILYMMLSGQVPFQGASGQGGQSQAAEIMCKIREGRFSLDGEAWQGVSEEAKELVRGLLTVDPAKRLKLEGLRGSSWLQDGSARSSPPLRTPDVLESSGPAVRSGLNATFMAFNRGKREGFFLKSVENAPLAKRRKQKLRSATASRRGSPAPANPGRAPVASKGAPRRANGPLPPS
TAOK2 (human), sequence (Q9UL54 whole entry, looked up): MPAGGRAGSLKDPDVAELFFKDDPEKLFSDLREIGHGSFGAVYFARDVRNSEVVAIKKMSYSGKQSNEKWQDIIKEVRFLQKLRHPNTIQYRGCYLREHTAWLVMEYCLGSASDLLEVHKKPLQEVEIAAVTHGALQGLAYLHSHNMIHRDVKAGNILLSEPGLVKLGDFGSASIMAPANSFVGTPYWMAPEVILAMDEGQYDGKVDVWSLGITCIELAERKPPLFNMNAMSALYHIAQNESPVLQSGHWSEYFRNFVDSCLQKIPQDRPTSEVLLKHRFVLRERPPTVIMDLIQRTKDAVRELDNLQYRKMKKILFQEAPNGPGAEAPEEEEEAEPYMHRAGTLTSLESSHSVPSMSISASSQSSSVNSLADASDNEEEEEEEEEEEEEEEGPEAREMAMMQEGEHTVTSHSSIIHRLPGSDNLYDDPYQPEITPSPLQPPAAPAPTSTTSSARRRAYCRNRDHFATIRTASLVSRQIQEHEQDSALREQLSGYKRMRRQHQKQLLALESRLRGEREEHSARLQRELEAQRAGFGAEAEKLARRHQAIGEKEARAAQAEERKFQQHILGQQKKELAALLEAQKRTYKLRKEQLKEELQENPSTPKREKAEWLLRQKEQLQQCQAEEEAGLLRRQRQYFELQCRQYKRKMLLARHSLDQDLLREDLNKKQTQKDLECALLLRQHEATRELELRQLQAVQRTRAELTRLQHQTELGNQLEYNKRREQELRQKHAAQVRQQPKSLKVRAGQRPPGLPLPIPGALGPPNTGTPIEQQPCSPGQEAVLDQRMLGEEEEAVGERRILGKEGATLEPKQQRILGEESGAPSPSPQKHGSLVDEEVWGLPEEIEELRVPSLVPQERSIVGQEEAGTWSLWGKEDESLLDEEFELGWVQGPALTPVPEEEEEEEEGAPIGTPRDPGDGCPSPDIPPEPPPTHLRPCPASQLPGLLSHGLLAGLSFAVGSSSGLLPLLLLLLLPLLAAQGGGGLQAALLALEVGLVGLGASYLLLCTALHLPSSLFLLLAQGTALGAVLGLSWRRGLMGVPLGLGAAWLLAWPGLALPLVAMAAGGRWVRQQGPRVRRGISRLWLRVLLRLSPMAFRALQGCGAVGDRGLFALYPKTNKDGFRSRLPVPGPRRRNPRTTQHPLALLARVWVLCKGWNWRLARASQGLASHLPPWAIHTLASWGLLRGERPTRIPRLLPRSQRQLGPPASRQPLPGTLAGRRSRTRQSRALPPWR
CAMK2D (human), sequence (Q13557 whole entry, looked up): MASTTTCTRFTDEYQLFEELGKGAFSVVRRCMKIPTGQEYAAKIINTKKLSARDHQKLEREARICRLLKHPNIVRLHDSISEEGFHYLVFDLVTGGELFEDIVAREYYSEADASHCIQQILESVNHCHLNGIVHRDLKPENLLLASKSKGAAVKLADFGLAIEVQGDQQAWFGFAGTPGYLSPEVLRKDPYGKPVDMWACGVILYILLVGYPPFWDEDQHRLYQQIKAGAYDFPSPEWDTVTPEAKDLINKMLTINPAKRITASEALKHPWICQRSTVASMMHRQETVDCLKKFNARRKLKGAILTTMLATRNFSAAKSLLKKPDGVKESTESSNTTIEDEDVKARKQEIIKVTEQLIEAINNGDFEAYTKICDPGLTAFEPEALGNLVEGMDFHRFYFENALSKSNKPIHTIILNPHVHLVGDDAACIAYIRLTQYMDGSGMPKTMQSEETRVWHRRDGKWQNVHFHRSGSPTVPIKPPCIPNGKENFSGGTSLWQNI
CSNK2A2 (human), sequence (P19784 whole entry, looked up): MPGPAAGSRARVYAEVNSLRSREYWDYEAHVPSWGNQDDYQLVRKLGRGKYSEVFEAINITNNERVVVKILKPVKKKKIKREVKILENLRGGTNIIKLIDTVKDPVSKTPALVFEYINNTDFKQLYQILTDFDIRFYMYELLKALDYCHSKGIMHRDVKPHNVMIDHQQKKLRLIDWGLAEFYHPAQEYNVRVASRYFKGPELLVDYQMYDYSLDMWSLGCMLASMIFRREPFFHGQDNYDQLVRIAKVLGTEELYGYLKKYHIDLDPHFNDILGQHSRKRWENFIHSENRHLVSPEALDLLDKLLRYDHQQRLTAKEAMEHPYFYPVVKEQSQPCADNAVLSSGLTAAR
MAPK12 (human), sequence (P53778 whole entry, looked up): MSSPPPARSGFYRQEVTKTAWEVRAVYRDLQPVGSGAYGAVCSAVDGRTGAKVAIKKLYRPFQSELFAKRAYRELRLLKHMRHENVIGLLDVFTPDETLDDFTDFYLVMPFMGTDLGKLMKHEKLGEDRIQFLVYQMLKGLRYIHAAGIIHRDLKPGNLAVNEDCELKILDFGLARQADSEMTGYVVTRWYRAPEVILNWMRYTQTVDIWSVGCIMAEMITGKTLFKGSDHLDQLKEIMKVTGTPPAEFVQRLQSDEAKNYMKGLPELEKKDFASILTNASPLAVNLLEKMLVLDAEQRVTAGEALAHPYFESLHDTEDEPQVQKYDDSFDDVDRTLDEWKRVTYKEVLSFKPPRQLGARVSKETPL

Row | Compound | residual activity (CSNK1E (human)) [%] | residual activity (STK38 (human)) [%] | residual activity (SRPK1 (human)) [%] | residual activity (PRKCI (human)) [%] | residual activity (EPHA6 (human)) [%] | residual activity (CSNK2A2 (human)) [%] | residual activity (ABL1 (human)) [%] | residual activity (CSK (human)) [%] | residual activity (RPS6KA2 KD1 KD2 (human)) [%] | residual activity (PRKACG (human)) [%] | residual activity (STK33 (human)) [%] | residual activity (ULK3 (human)) [%] | residual activity (IRAK4 (human)) [%] | residual activity (MAPK11 (human)) [%] | residual activity (EPHB1 (human)) [%] | residual activity (PKN2 (human)) [%] | residual activity (PAK7 (human)) [%] | residual activity (PRKCH (human)) [%] | residual activity (MAPK12 (human)) [%] | residual activity (PRKX (human)) [%] | further results
1 | O=C1NC(=O)/C(=C\c2ccc3nccnc3c2)S1 | 92.3 | 99.6 | 110 | 98.6 | 82.4 | 3.08 | 95.7 | 86.3 | 85.4 | 99.6 | 66.3 | 102 | 99.9 | 99.2 | 93.4 | 107 | 97.4 | 89.7 | 96.6 | 89.2 | residual activity (JAK2 JH1 JH2 (human)): 97.4%; residual activity (DYRK4 (human)): 96.5%; residual activity (JAK3 JH1 JH2 (human)): 97.2%; residual activity (DYRK1B (human)): 31.3%; residual activity (CHUK (human)): 86.7%; residual activity (OXSR1 (human)): 98.4%; residual activity (MAPK9 (human)): 96%; residual activity (CDK5 CDK5R1 p25 (human)): 83.2%; residual activity (TLK2 (human)): 95.2%; residual activity (MYO3B (human)): 83.8%; residual activity (RPS6KA4 KD2 (human)): 115%; residual activity (BRAF (human)): 95.1%; residual activity (PBK (human)): 93%; residual activity (MATK (human)): 90.5%; residual activity (ULK1 (human)): 100%; residual activity (TAOK2 (human)): 89.9%; residual activity (CAMK2D (human)): 93.7%; residual activity (MAPK8 (human)): 91.5%; residual activity (RPS6KA3 KD1 KD2 (human)): 101%; residual activity (PRKD2 (human)): 104%
2 | COc1cc2ncc(-c3ccccc3)nc2cc1OC | 79.3 | 95.9 | 105 | 82.1 | 90.4 | 98.3 | 94.1 | 107 | 85.4 | 87.6 | 91.7 | 89.4 | 90.6 | 95.7 | 92.8 | 88.3 | 85.6 | 107 | 95.5 | 97.4 | residual activity (JAK2 JH1 JH2 (human)): 94.4%; residual activity (DYRK4 (human)): 112%; residual activity (JAK3 JH1 JH2 (human)): 90.3%; residual activity (DYRK1B (human)): 110%; residual activity (CHUK (human)): 113%; residual activity (OXSR1 (human)): 100%; residual activity (MAPK9 (human)): 93.1%; residual activity (CDK5 CDK5R1 p25 (human)): 94.6%; residual activity (TLK2 (human)): 96.3%; residual activity (MYO3B (human)): 84.6%; residual activity (RPS6KA4 KD2 (human)): 85.4%; residual activity (BRAF (human)): 93.2%; residual activity (PBK (human)): 85.5%; residual activity (MATK (human)): 101%; residual activity (ULK1 (human)): 84.5%; residual activity (TAOK2 (human)): 95.9%; residual activity (CAMK2D (human)): 87.5%; residual activity (MAPK8 (human)): 102%; residual activity (RPS6KA3 KD1 KD2 (human)): 101%; residual activity (PRKD2 (human)): 93.8%

Source: the kinase profiling compilation of Christmann-Franck et al. (2016)
